Molecular target: T1, serotonin 5-HT1A receptor (Rattus norvegicus, UniProt P19327)
T1 sequence (P19327 1-422): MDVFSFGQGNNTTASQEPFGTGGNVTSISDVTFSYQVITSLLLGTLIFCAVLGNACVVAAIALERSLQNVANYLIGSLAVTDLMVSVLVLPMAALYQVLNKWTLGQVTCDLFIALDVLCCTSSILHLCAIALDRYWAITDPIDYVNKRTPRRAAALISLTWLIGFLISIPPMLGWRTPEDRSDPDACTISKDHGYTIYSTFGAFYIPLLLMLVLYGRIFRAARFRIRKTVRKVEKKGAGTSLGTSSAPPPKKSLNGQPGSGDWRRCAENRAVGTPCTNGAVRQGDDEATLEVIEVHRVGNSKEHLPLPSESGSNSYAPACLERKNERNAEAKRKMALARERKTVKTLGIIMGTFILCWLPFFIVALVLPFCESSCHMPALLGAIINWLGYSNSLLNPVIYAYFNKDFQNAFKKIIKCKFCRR
Assay: [3H]WAY-100635 radioligand displacement in rat brain homogenates
Format: binding

- Ki: 0.84 nM
Structure (SMILES): COc1ccccc1N1CCN(CCN(c2ccccn2)C(=O)[C@H]2CC[C@H](CF)CC2)CC1 [trans-mefway, N-{2-[4-(2'-methoxyphenyl)piperazinyl]ethyl}-N-(2-pyridyl)-N-(cis/trans-4'-[^18F]fluoromethylcyclohexane)-carboxamide]

Reference: publication PMC3744326 (Synapse (New York, N.Y.), 2013)
